Test results as given in ChEMBL document CHEMBL2331530, “Novel 3-O-carbamoyl erythromycin A derivatives (carbamolides) with activity against resistant staphylococcal and streptococcal isolates” (2013).
Values after ≈ are worked out from the molar mass of the structure shown.

Experiments:
Format in all cases: functional
Staphylococcus aureus [1] = test: Antibacterial activity against macrolides, lincosamides, streptogramin B and methicillin-resistant Staphylococcus aureus 1609-09 harboring cfr gene assessed as growth inhibition
Staphylococcus aureus [2] = test: Antibacterial activity against methicillin-resistant Staphylococcus aureus 1279-07 harboring cfr gene assessed as growth inhibition
Staphylococcus aureus [3] = test: Antibacterial activity against methicillin-resistant Staphylococcus aureus 1281-07 harboring cfr gene assessed as growth inhibition
Staphylococcus aureus [4] = test: Antibacterial activity against methicillin-resistant Staphylococcus aureus 2111-10-USA300 harboring cfr gene assessed as growth inhibition
Staphylococcus aureus [5] = test: Antibacterial activity against methicillin-resistant Staphylococcus aureus 1279-07-USA300 assessed as growth inhibition
[6] = test system: Staphylococcus epidermidis; test: Antibacterial activity against macrolides, lincosamides, streptogramin B and methicillin-resistant Staphylococcus epidermidis 1105-00 assessed as growth inhibition
Streptococcus pyogenes = test: Antibacterial activity against macrolides, lincosamides, and streptogramin B-resistant Streptococcus pyogenes 1304-00 assessed as growth inhibition
Streptococcus pneumoniae = test: Antibacterial activity against macrolides, lincosamides, and streptogramin B-resistant Streptococcus pneumoniae 1243-00 assessed as growth inhibition
Staphylococcus aureus [7] = test: Antibacterial activity against Staphylococcus aureus ATCC 29213 assessed as growth inhibition
Staphylococcus aureus [8] = test: Antibacterial activity against macrolides, lincosamides, streptogramin B and methicillin-resistant Staphylococcus aureus 1015-00 assessed as growth inhibition

| SMILES | MIC (Staphylococcus aureus [1]) [mg/L] | MIC (Staphylococcus aureus [2]) [mg/L] | MIC (Staphylococcus aureus [3]) [mg/L] | MIC (Staphylococcus aureus [4]) [mg/L] | MIC (Staphylococcus aureus [5]) [mg/L] | MIC [6] [mg/L] | MIC (Streptococcus pyogenes) [mg/L] | MIC (Streptococcus pneumoniae) [mg/L] | MIC (Staphylococcus aureus [7]) [mg/L] | MIC (Staphylococcus aureus [8]) [mg/L] |
| --- | --- | --- | --- | --- | --- | --- | --- | --- | --- | --- |
| CC[C@H]1OC(=O)[C@H](C)[C@@H](OC(=O)N2CCCC2)[C@H](C)[C@@H](O[C@@H]2O[C@H](C)C[C@H](N(C)C)[C@H]2O)[C@](C)(OC)C[C@@H](C)C(=O)[C@H](C)[C@H]2NC(=O)O[C@@]21C | 16 (≈ 22.5 µM) | 16 (≈ 22.5 µM) | 32 (≈ 45 µM) | 16 (≈ 22.5 µM) | 2 (≈ 2.81 µM) | 1 (≈ 1.4 µM) | 0.5 (≈ 0.702 µM) | 0.5 (≈ 0.702 µM) | 4 (≈ 5.62 µM) | 4 (≈ 5.62 µM) |
| CC(=O)NC[C@H]1CN(c2ccc(N3CCOCC3)c(F)c2)C(=O)O1 [LINEZOLID] | 8 (≈ 23.7 µM) | 0.5 (≈ 1.48 µM) | 0.5 (≈ 1.48 µM) | 0.5 (≈ 1.48 µM) | 1 (≈ 2.96 µM) | 8 (≈ 23.7 µM) | 0.125 (≈ 0.371 µM) | 0.125 (≈ 0.371 µM) | 0.5 (≈ 1.48 µM) | 8 (≈ 23.7 µM) |
| CC[C@H]1OC(=O)[C@H](C)[C@@H](OC(=O)N2CC(C)(C)C[C@@H]2c2ccc(Cl)cc2Cl)[C@H](C)[C@@H](O[C@@H]2O[C@H](C)C[C@H](N(C)C)[C@H]2O)[C@](C)(OC)C[C@@H](C)C(=O)[C@H](C)[C@H]2NC(=O)O[C@@]21C | 64 (≈ 72.3 µM) | 0.25 (≈ 0.283 µM) | 0.25 (≈ 0.283 µM) | 0.25 (≈ 0.283 µM) | 0.5 (≈ 0.565 µM) | 8 (≈ 9.04 µM) | 0.03 (≈ 0.0339 µM) | 0.015 (≈ 0.017 µM) | 0.25 (≈ 0.283 µM) | 32 (≈ 36.2 µM) |
| CC[C@H]1OC(=O)[C@H](C)[C@@H](OC(=O)N2CC(C)(C)C[C@@H]2c2ccc(Cl)cc2)[C@H](C)[C@@H](O[C@@H]2O[C@H](C)C[C@H](N(C)C)[C@H]2O)[C@](C)(OC)C[C@@H](C)C(=O)[C@H](C)[C@H]2NC(=O)O[C@@]21C | > 64 | 0.25 (≈ 0.294 µM) | 0.25 (≈ 0.294 µM) | 0.25 (≈ 0.294 µM) | 0.5 (≈ 0.588 µM) | 64 (≈ 75.3 µM) | 0.125 (≈ 0.147 µM) | 0.125 (≈ 0.147 µM) | 0.25 (≈ 0.294 µM) | > 64 |
| CC[C@H]1OC(=O)[C@H](C)[C@@H](OC(=O)N2CC(C)(C)C[C@@H]2c2ccccc2Cl)[C@H](C)[C@@H](O[C@@H]2O[C@H](C)C[C@H](N(C)C)[C@H]2O)[C@](C)(OC)C[C@@H](C)C(=O)[C@H](C)[C@H]2NC(=O)O[C@@]21C | 64 (≈ 75.3 µM) | 0.25 (≈ 0.294 µM) | 0.25 (≈ 0.294 µM) | 0.25 (≈ 0.294 µM) | 2 (≈ 2.35 µM) | 64 (≈ 75.3 µM) | 0.25 (≈ 0.294 µM) | 0.25 (≈ 0.294 µM) | 0.25 (≈ 0.294 µM) | 64 (≈ 75.3 µM) |
| CC[C@H]1OC(=O)[C@H](C)[C@@H](OC(=O)N2CC(C)(C)C[C@@H]2c2cccc(Cl)c2)[C@H](C)[C@@H](O[C@@H]2O[C@H](C)C[C@H](N(C)C)[C@H]2O)[C@](C)(OC)C[C@@H](C)C(=O)[C@H](C)[C@H]2NC(=O)O[C@@]21C | > 64 | 0.25 (≈ 0.294 µM) | 0.125 (≈ 0.147 µM) | 0.25 (≈ 0.294 µM) | 0.25 (≈ 0.294 µM) | 64 (≈ 75.3 µM) | 0.03 (≈ 0.0353 µM) | 0.03 (≈ 0.0353 µM) | 0.25 (≈ 0.294 µM) | > 64 |
| CC[C@H]1OC(=O)[C@H](C)[C@@H](OC(=O)N2CC(C)(C)C[C@@H]2c2ccc(Cl)c(Cl)c2)[C@H](C)[C@@H](O[C@@H]2O[C@H](C)C[C@H](N(C)C)[C@H]2O)[C@](C)(OC)C[C@@H](C)C(=O)[C@H](C)[C@H]2NC(=O)O[C@@]21C | 64 (≈ 72.3 µM) | 0.25 (≈ 0.283 µM) | 0.25 (≈ 0.283 µM) | 0.25 (≈ 0.283 µM) | 2 (≈ 2.26 µM) | 64 (≈ 72.3 µM) | 0.125 (≈ 0.141 µM) | 0.125 (≈ 0.141 µM) | 0.25 (≈ 0.283 µM) | 64 (≈ 72.3 µM) |
| CC[C@H]1OC(=O)[C@H](C)[C@@H](OC(=O)N2CCC[C@@H]2c2cccnc2)[C@H](C)[C@@H](O[C@@H]2O[C@H](C)C[C@H](N(C)C)[C@H]2O)[C@](C)(OC)C[C@@H](C)C(=O)[C@H](C)[C@H]2NC(=O)O[C@@]21C | > 64 | 16 (≈ 20.3 µM) | 0.125 (≈ 0.158 µM) | 0.25 (≈ 0.317 µM) | 16 (≈ 20.3 µM) | > 64 | 0.5 (≈ 0.634 µM) | 0.5 (≈ 0.634 µM) | 0.25 (≈ 0.317 µM) | > 64 |
| CC[C@H]1OC(=O)[C@H](C)[C@@H](OC(=O)N2CCC[C@H]2c2ccccc2)[C@H](C)[C@@H](O[C@@H]2O[C@H](C)C[C@H](N(C)C)[C@H]2O)[C@](C)(OC)C[C@@H](C)C(=O)[C@H](C)[C@H]2NC(=O)O[C@@]21C | > 64 | > 64 | 0.5 (≈ 0.635 µM) | 0.5 (≈ 0.635 µM) | > 64 | > 64 | > 64 | > 64 | 2 (≈ 2.54 µM) | > 64 |
| CC[C@H]1OC(=O)[C@H](C)[C@@H](O[C@H]2C[C@@](C)(OC)[C@@H](O)[C@H](C)O2)[C@H](C)[C@@H](O[C@@H]2O[C@H](C)C[C@H](N(C)C)[C@H]2O)[C@](C)(OC)C[C@@H](C)C(=O)[C@H](C)[C@@H](O)[C@]1(C)O [CLARITHROMYCIN] | 16 (≈ 21.4 µM) | 0.5 (≈ 0.668 µM) | 0.25 (≈ 0.334 µM) | 0.5 (≈ 0.668 µM) | 1 (≈ 1.34 µM) | 8 (≈ 10.7 µM) | 0.25 (≈ 0.334 µM) | 0.125 (≈ 0.167 µM) | 0.5 (≈ 0.668 µM) | 16 (≈ 21.4 µM) |
| CC[C@H]1OC(=O)[C@H](C)[C@@H](OC(=O)N2CC(C)(C)C[C@@H]2c2cccc3c2OCO3)[C@H](C)[C@@H](O[C@@H]2O[C@H](C)C[C@H](N(C)C)[C@H]2O)[C@](C)(OC)C[C@@H](C)C(=O)[C@H](C)[C@H]2NC(=O)O[C@@]21C | > 64 | 0.125 (≈ 0.145 µM) | 0.125 (≈ 0.145 µM) | 0.125 (≈ 0.145 µM) | 0.5 (≈ 0.581 µM) | 16 (≈ 18.6 µM) | 0.03 (≈ 0.0349 µM) | 0.03 (≈ 0.0349 µM) | 0.125 (≈ 0.145 µM) | 64 (≈ 74.4 µM) |
| CC[C@H]1OC(=O)[C@H](C)[C@@H](OC(=O)N2CCC[C@@H]2c2ccccc2)[C@H](C)[C@@H](O[C@@H]2O[C@H](C)C[C@H](N(C)C)[C@H]2O)[C@](C)(OC)C[C@@H](C)C(=O)[C@H](C)[C@H]2NC(=O)O[C@@]21C | > 64 | > 64 | 0.25 (≈ 0.317 µM) | > 64 | > 64 | > 64 | > 64 | > 64 | 0.5 (≈ 0.635 µM) | > 64 |
| CC[C@H]1OC(=O)[C@H](C)[C@@H](OC(=O)N2CC(C)(C)C[C@@H]2c2cccnc2)[C@H](C)[C@@H](O[C@@H]2O[C@H](C)C[C@H](N(C)C)[C@H]2O)[C@](C)(OC)C[C@@H](C)C(=O)[C@H](C)[C@H]2NC(=O)O[C@@]21C | > 64 | – | – | – | > 64 | 16 (≈ 19.6 µM) | 0.03 (≈ 0.0367 µM) | 0.03 (≈ 0.0367 µM) | 4 (≈ 4.9 µM) | > 64 |
| CC[C@H]1OC(=O)[C@H](C)[C@@H](OC(=O)N2CC(C)(C)C[C@@H]2c2ccc3c(c2)OCO3)[C@H](C)[C@@H](O[C@@H]2O[C@H](C)C[C@H](N(C)C)[C@H]2O)[C@](C)(OC)C[C@@H](C)C(=O)[C@H](C)[C@H]2NC(=O)O[C@@]21C | > 64 | 0.25 (≈ 0.291 µM) | 0.25 (≈ 0.291 µM) | 0.25 (≈ 0.291 µM) | 4 (≈ 4.65 µM) | > 64 | 2 (≈ 2.33 µM) | 0.5 (≈ 0.581 µM) | 0.25 (≈ 0.291 µM) | > 64 |
| CC[C@H]1OC(=O)[C@H](C)[C@@H](OC(=O)N2CC(C)(C)C[C@@H]2c2cccc(Cl)c2Cl)[C@H](C)[C@@H](O[C@@H]2O[C@H](C)C[C@H](N(C)C)[C@H]2O)[C@](C)(OC)C[C@@H](C)C(=O)[C@H](C)[C@H]2NC(=O)O[C@@]21C | 64 (≈ 72.3 µM) | 0.5 (≈ 0.565 µM) | 0.25 (≈ 0.283 µM) | 0.5 (≈ 0.565 µM) | 2 (≈ 2.26 µM) | 16 (≈ 18.1 µM) | 1 (≈ 1.13 µM) | 1 (≈ 1.13 µM) | 0.5 (≈ 0.565 µM) | 32 (≈ 36.2 µM) |
